Test results published in patent US10647671B2, “Promysalin analogues and methods of use thereof” (Temple University—Of The Commonwealth System of Higher …, priority 2016, dated 2020).
Where two headings read alike, the source gives them in different places.

Assays:
P. aeruginosa PA01 = assay: IC50 assay (OD595, 24 h) against PA01; format: cell-based; details: Pseudomonas aeruginosa
Description: (§1) P. aeruginosa PA01, and PA14 were gifts from Prof. George O'Toole (Dartmouth Medical School). Bacterial cultures were grown from freezer stocks overnight (16-24 hr) with shaking at 37° C. in Tryptic Soy Broth (TSB) media (10 mL). Growth curves were obtained for PA01 and PA14 to determine the OD of each strain in exponential growth; OD readings at 595 nm were taken every 10 minutes for 6 hours in a plate reader at 37° C. with shaking and repeated six times. (see FIGS. 6A and 6B) Compounds were serially diluted in sterile DI water from a stock solution (1 mM in 10% DMSO/90% H2O) to yield twenty-four test concentrations. Overnight cultures were diluted 1:100 in 5 mL fresh media and grown with shaking at 37° C. to an OD of 0.32 (see growth curves). Bacteria were diluted to a concentration of 0.004 using the following equation: (x μL O/N)(OD reading)=(0.004)(volume needed) and 100 μL was inoculated into each well of a flat-bottom 96-well plate (Corning 3370) containing 100 μL of compound solution. Plates were incubated statically at 37° C. for 24 hours, upon which time the OD at 595 nm was measured using a plate reader. IC50 values were calculated by fitting the OD readings vs. concentration with a 4 parameter logistic model. Controls were prepared by serially diluting a 10% DMSO/90% H2O the same as the compound stock solution. Compounds were tested in triplicate from separate O/N cultures and results averaged.

P. aeruginosa PA14 = assay: IC50 assay (OD595, 24 h) against PA14; format: cell-based, Pseudomonas aeruginosa; details: Pseudomonas aeruginosa
Description: (§2) P. aeruginosa PA01, and PA14 were gifts from Prof. George O'Toole (Dartmouth Medical School). Bacterial cultures were grown from freezer stocks overnight (16-24 hr) with shaking at 37° C. in Tryptic Soy Broth (TSB) media (10 mL). Growth curves were obtained for PA01 and PA14 to determine the OD of each strain in exponential growth; OD readings at 595 nm were taken every 10 minutes for 6 hours in a plate reader at 37° C. with shaking and repeated six times. (see FIGS. 6A and 6B)
as §1, with “Compounds” for “P. aeruginosa PA01, and PA14 were gifts from Prof. George O'Toole (Dartmouth Medical School). Bacterial cultures were grown from freezer stocks overnight (16-24 hr) with shaking at 37° C. in Tryptic Soy Broth (TSB) media (10 mL). Growth curves were obtained for PA01 and PA14 to determine the OD of each strain in exponential growth; OD readings at 595 nm were taken every 10 minutes for 6 hours in a plate reader at 37° C. with shaking and repeated six times. (see FIGS. 6A and 6B) Compounds”
Compounds were serially diluted in sterile DI water from a stock solution (10% DMSO/H2O) yielding 24 test concentrations. Bacteria were diluted to a final concentration of 0.004 from regrown overnight culture according to the following equation: (xμL bacterial culture)(OD reading)=(0.004)(total volume needed) and 100 μL was inoculated into each well of a flat-bottom 96-well plate (Corning 3370) containing 100 μL of compound solution. Plates were incubated statically at 37° C. for 24 hours upon which time OD at 595 nm was measured using a plate reader (Spectra Max 190). IC50 values were calculated using OD values and concentrations with a 4-parameter logistic model. Control experiments used a 10% DMSO/H2O stock serially diluted to the same 24 concentrations. Compounds were tested in triplicate from three independent overnight cultures.

CAS assay (CAS agar) = format: physicochemical; details: at concentrations ranging from 6-100 μM; reduced affinity compared to EDTA
Description: CAS agar was prepared as described previously (Cordero, et al., PNAS, 2012, 109, 49, 29059). 10 μL of solution at given concentration were dosed onto plates and imaged after 24 hours. Stock solutions were made in 10% DMSO/H2O.

PaPiuA = assay: Isothermal microcalorimetry titration; format: binding, Pseudomonas aeruginosa; details: 25° C.
Description: Titrations were performed using 5 μl injections of 164 μM (using ε280=6 714 1 mol-1 cm-1 Li et al. Chemistry and Biology 2011) of the ligand in 17 μM of purified PaPiuA (Moynie et al. Antimicrobial Agents and Chemotherapy 2017) in the same buffer (50 mM sodium phosphate pH 7.5, 50 mM NaCl, 0.8% OctylPOE). The heats of dilution measured from injection of the ligands into the buffer were subtracted from the experimental data and titration curves were fitted to a single site binding using Origin software.

[1] = test system: P. aeruginosa (PA14, PA01); assay: Zone of inhibition / growth in defined media; format: cell-based, Pseudomonas aeruginosa
Description: (§3) Bacterial strains (PA14, PAO1, KT2440, and RW10S1) were grown at 37° C. in TSB medium or on agar plates.
(§4) 100 μL overnight culture was added to TSB or M9 agar plates and bacterial lawns were ‘created’ using Roll & Grow Plating Beads. Compound stock solution 20 μL of a 250 μM solution, 10 μL of a 10 mg/mL gentamicin solution, and 20 μL of a 250 μM DMSO control (stock=10% DMSO/H2O) was absorbed into discs and allowed to dry. Discs were placed on the plates and incubated at 37° C. for 24 hours. Assay was run in triplicate from separate overnight cultures.

[2] = test system: P. putida (PP KT2440, PP RW10S); assay: Zone of inhibition / growth in defined media; format: cell-based, Pseudomonas putida
Description: as §3, §4

[3] = test system: P. aeruginosa strains PAO1 and PA14; details: cited from earlier work
[4] = Kaduskar et al., 2016; cited from earlier work
Gram-positive bacteria = details: Li et al., 2011; cited from earlier work
[5] = test system: pyoverdine production in P. putida KT2440; details: cited from earlier work
[6] = test system: P. aeruginosa strains PAO1 and PA14; assay: Inhibitory activity against P. aeruginosa, strain not separated in text; format: cell-based, Pseudomonas aeruginosa; details: compared with promysalin
Description: as §2
as §1, with “Compounds” for “P. aeruginosa PA01, and PA14 were gifts from Prof. George O'Toole (Dartmouth Medical School). Bacterial cultures were grown from freezer stocks overnight (16-24 hr) with shaking at 37° C. in Tryptic Soy Broth (TSB) media (10 mL). Growth curves were obtained for PA01 and PA14 to determine the OD of each strain in exponential growth; OD readings at 595 nm were taken every 10 minutes for 6 hours in a plate reader at 37° C. with shaking and repeated six times. (see FIGS. 6A and 6B) Compounds”
With a library of sixteen analogs in hand, all of the compounds were evaluated for inhibitory activity against P. aeruginosa strains PAO1 and PA14. […] The inhibition data supported our initial hypothesis that the conformation of promysalin is exquisitely linked to its inhibition of PA. Of our modifications to the proline structure, fluorination (9)—being the smallest steric perturbation, was the only compound with equipotency to that of promysalin.

[7] = average of EXPT 1-3, read-out: IC50 PA01 AVG
[8] = averages of three independent experiments, read-out: IC50 PA01
[9] = single trial 1, read-out: IC50 PA01 EXPT 1
[10] = single trial 2, read-out: IC50 PA01 EXPT 2
[11] = single trial 3, read-out: IC50 PA01 EXPT 3
[12] = average of EXPT 1-3, read-out: IC50 PA14 AVG
[13] = averages of three independent experiments, read-out: IC50 PA14
[14] = single trial 1, read-out: IC50 PA14 EXPT 1
[15] = single trial 2, read-out: IC50 PA14 EXPT 2
[16] = single trial 3, read-out: IC50 PA14 EXPT 3

SMILES | IC50 (P. aeruginosa PA01; [7]) [µM] | IC50 (P. aeruginosa PA01; [8]) [µM] | IC50 (P. aeruginosa PA01; [9]) [µM] | IC50 (P. aeruginosa PA01; [10]) [µM] | IC50 (P. aeruginosa PA01; [11]) [µM] | IC50 (P. aeruginosa PA14; [12]) [µM] | IC50 (P. aeruginosa PA14; [13]) [µM] | IC50 (P. aeruginosa PA14; [14]) [µM] | IC50 (P. aeruginosa PA14; [15]) [µM] | IC50 (P. aeruginosa PA14; [16]) [µM] | inhibitory activity against P. aeruginosa, in words (SAR) [6] | other results
CCCCCC[C@H](CCCCC[C@@H](O)C(N)=O)OC(=O)[C@@H]1CC=CN1C(=O)c1ccccc1O [1 (2R,8R), promysalin] | 4.12 | 4.1 | 4.44 | 4.37 | 3.54 | 0.067 | 0.067 | 0.1 | 0.02 | 0.08 | – | IC50 (P. aeruginosa PA14; preliminary screening for probe design, read-out: IC50 in PA14): 0.063 µM; Fe^3+ chelation on CAS agar (CAS assay (CAS agar)): positive; binding to PiuA (isothermal microcalorimetry) (PaPiuA): no appreciable interaction; activity in TSB and glucose+Fe media [1]: active; zone of inhibition ([2]; M9, succinate as sole carbon source, iron-limiting, both PP strains including producing organism): clear zone of inhibition; activity in TSB and glucose+Fe media ([2]; P. putida): not P. putida; activity against PA (literature) [3]: nM concentrations; stability under mildly acidic conditions [4]: instability; susceptibility of Gram-positive bacteria (Gram-positive bacteria): no susceptibility; production of pyoverdine in P. putida KT2440 [5]: inhibits
CCCCCC[C@H](CCCCC[C@@H](O)C(N)=O)OC(=O)[C@@H]1CC(C)=CN1C(=O)c1ccccc1O [compound 10, (7R,13R)-14-amino-13-hydroxy-14-oxotetradecan-7-yl (S)-1-(2-hydroxybenzoyl)-4-methyl-2,3-dihydro-1H-pyrrole-2-carboxylate] | 31.9 | 32 | 32.3 | 32.5 | 31.1 | 11.4 | 12 | 10.8 | 11.2 | 12.2 | slightly tolerated | –
CCCCCC[C@H](CCCCC[C@@H](OC)C(N)=O)OC(=O)[C@@H]1CC=CN1C(=O)c1ccccc1O [compound 19, (7R,13R)-14-amino-13-methoxy-14-oxotetradecan-7-yl (S)-1-(2-hydroxybenzoyl)-2,3-dihydro-1H-pyrrole-2-carboxylate] | 38.3 | 38 | 29.2 | 49.3 | 47.6 | 11.2 | 11 | 12.8 | 5.72 | 15 | decrease in potency | –
CCCCCC[C@H](C/C=C/CC[C@@H](O)C(N)=O)OC(=O)[C@@H]1CC=CN1C(=O)c1ccccc1O [compound 21, (7R,13R,E)-14-amino-13-hydroxy-14-oxotetradec-9-en-7-yl (S)-1-(2-hydroxybenzoyl)-2,3-dihydro-1H-pyrrole-2-carboxylate] | 8.34 | 8.3 | 10.1 | 8.07 | 6.81 | 0.067 | 0.067 | 0.12 | 0.05 | 0.03 | equipotent | –
CCCCCC[C@H](CCCCC[C@@H](O)C(N)=O)OC(=O)[C@@H]1CCCN1C(=O)c1ccccc1O [compound 6, (1R,7R)-1-carbamoyl-1-hydroxytridecan-7-yl (2S)-1-(2-hydroxybenzoyl)pyrrolidine-2-carboxylate] | 111 | 111 | 113 | 98.9 | 121 | 28.3 | 28 | 24.3 | 27.1 | 33.7 | modest activity | –
